Patent US20250283046A1, “New Cell Populations and Means and Methods for their Differentiation and Preservation” (EVOTEC INTERNATIONAL GMBH, priority 2022, published 2025)

Columns and labels:
Format in all cases: cell-based, human
[1] = tested on: post-thaw islet-like clusters; test: Single-cell RNA sequencing of post-thaw islet-like clusters; details: second protocol, frozen at EN+1
Method: While applying the second differentiation protocol, clusters were frozen at EN+1 using the described cryoprotective medium of 7.2% DMSO+2.8% EG added within the stepwise cryoprotection treatment and freezing procedure A. After thawing the EN clusters as described, the clusters were differentiated into islet-like clusters according to the second protocol (Control) in comparison to the second protocol with extension of GSI and without T3 addition. Single-cell RNA sequencing was carried out after thawing and differentiation into islet-like clusters, after dissociation of clusters into single cells.

ILC cells [2] = test: Flow cytometry of islet-like clusters differentiated from hiPSC with the combination protocol
Method: Beta cell differentiation from iPSC aggregates was carried out using several hiPSC lines with a new protocol derived by combining two published protocols (Nostro et al., Stem Cell Reports (2015), 4(4): 591-604; Rezania et al., Nat Biotechnol (2014), 32(11): 1121-1133), further referred to as “combination protocol”. iPSCs were seeded as single cells in suspension at 1×10^6 cells/mL in mTeSR1 (StemCell Technologies Inc.; 05850) with […] Y-27632 and kept in culture in 100 mL spinner flasks on a stirring platform to form aggregates under low shear conditions (see e.g. Fok and Zandstra, Stem Cells 2005; 23:1333-1342). At day 0 of differentiation, iPSC clusters were treated with Basal medium 1 (BM1) with the addition of 100 ng/mL Activin A, 2 μM CHIR 99021 and 10 μM Y-27632 to induce definitive endoderm. On subsequent days, media change was performed as described below, and occurred daily up to day 14, every other day after that. Definitive endoderm (DE) was induced from day 0 to day 3 and gut tube (GT) was patterned from day 3 to day 6. On day 6, pancreatic progenitors (PP) were induced until day 11. Commitment to the endocrine (EN) lineage was then performed between day 11 and day 14, and day 14 EN clusters were differentiated to islet-like clusters (ILCs) until day 24 (FIG. 1).
As a result, the content of chromogranin A^pos cells rose to levels above 95% (FIGS. 2A, 2C).
The addition of gamma secretase inhibitor and removal of T3 led to increased populations of pancreatic islet endocrine cells in islet-like clusters. […] In addition, the somatostatin^pos population was increased in islet-like clusters generated with the addition of gamma secretase inhibitor and removal of T3 (FIG. 7; FIG. 11; FIG. 14; FIG. 15A).
Quantification of the EC cell population in islet-like clusters was performed by FACS for serotonin^pos and C-peptide^neg cells. While islet-like clusters generated using the combination protocol (Control) contain 30% of pancreatic EC cells, the addition of gamma secretase inhibitor in absence of T3 (+GSI/−T3) led to a drastic reduction of this population, down to levels <15% (FIGS. 5A, 5B).

ILC cells [3] = test: Flow cytometry of islet-like clusters obtained with the second protocol; details: second protocol with addition of GSI and removal of T3
Source text: As the combination protocol, the second protocol starts with seeding and aggregation of single pluripotent cells in suspension, and proceeds through the same intermediate stages of pancreatic embryonic development (definitive endoderm/DE, primitive gut tube, pancreatic progenitors, endocrine differentiation) to beta cell-containing islet-like clusters (ILCs) containing C-peptide^pos/insulin^pos/NKX6.1^pos beta cells. Differences to the combined protocol include the addition of a combination of BMP4 and bFGF during the first day of DE induction (see also Example 4), and longer durations of media incubations during pancreatic progenitor and endocrine induction, resulting in an overall longer time from start of differentiation to EN stage (EN stage on day 16 instead of day 14). Similar to the combined protocol, the second protocol was modified by additional gamma secretase inhibitor treatment in absence of T3 during the EN to ILC transition. The latter version of the adapted protocol is referred to “second protocol +GSI/−T3”.

[4] = tested on: post-thaw islet-like clusters; test: Flow cytometry of post-thaw islet-like clusters; details: combination protocol
Method: (§1) Using the combination protocol, induced pluripotent stem cells were differentiated into EN clusters. […] Clusters were cryoprotected before freezing by addition of the basal cryoprotective medium, consisting of KnockOut™ Serum Replacement, 10 μM ROCKi and 2 μM fatty acids, with increasing concentrations of DMSO and EG, in combination with incubation steps at decreasing temperatures. The DMSO and EG concentrations during the cryoprotection protocol and the corresponding stock concentrations, along with incubation times and temperatures, are given in table 1.
EN clusters, transferred to cryogenic vials, were frozen directly after the stepwise cryoprotection treatment in a controlled rate freezer using the following protocol (freezing procedure A): • 1. The sample is cooled-down to −7.5° C. (+/−0.7° C.); • 2. Induction of nucleation by mechanical agitation and inducing a supercool spot at the outer vial wall; • 3. Incubation for 15-minutes at −7.5° C.; • 4. Cool-down of sample to −40° C. at a rate of 0.3° C. per minute; • 5. Immersion of sample in liquid nitrogen; • 6. Transfer to liquid N2 tank for long-term storage.
After low-temperature storage of at least seven days, the EN clusters were thawed rapidly in a 37° C. waterbath and the cryoprotective medium is diluted with thawing medium, consisting of differentiation medium for the EN-stage as described previously, according to the combination protocol, supplemented with 20% KnockOut™ Serum Replacement and 10 μM ROCKi. After resuspension in fresh thawing medium, the EN clusters are cultured under standard culture conditions. The supplements in the thawing medium are removed by medium change after 24 hours, using differentiation medium for the EN-stage, according to the combination protocol, for further differentiation. Afterwards, the culture medium was refreshed regularly. […]
Recovery rates were determined after post-thaw culture of 4-6 days, i.e. differentiation into islet-like clusters, by determination of viable cell count. Clusters, dissociated into single cells, were stained and analysed for different markers with flow cytometry.

[5] = tested on: post-thaw islet-like clusters; test: Post-thaw recovery rate of islet-like clusters (viable cell count); details: combination protocol, frozen at EN stage with Medium A, freezing procedure A; GSI without T3 after thawing
Method: as §1
EN clusters, transferred to cryogenic vials, were frozen directly after the stepwise cryoprotection treatment in a controlled rate freezer using the following protocol (freezing procedure A): • 1. The sample is cooled-down to −7.5° C. (+/−0.7° C.); • 2. […]
Recovery rates were determined after post-thaw culture of 4-6 days, i.e. differentiation into islet-like clusters, by determination of viable cell count. Clusters, dissociated into single cells, were stained and analysed for different markers with flow cytometry. […]
Subsequent to the cryoprotection, the clusters were frozen using freezing procedure A, as described. […] Recovery rates of post-thaw islet-like clusters were determined by determination of viable cell count. Viability was determined with a viability staining with PI and FDA, imaged with a fluorescence microscope. […]

islet-like clusters = test: Single cell RNA sequencing and histology of islet-like clusters
Method: Beta cell differentiation from iPSC aggregates was carried out using several hiPSC lines with a new protocol derived by combining two published protocols (Nostro et al., Stem Cell Reports (2015), 4(4): 591-604; Rezania et al., Nat Biotechnol (2014), 32(11): 1121-1133), further referred to as “combination protocol”. iPSCs were seeded as single cells in suspension at 1×10^6 cells/mL in mTeSR1 (StemCell Technologies Inc.; 05850) with […] Y-27632 and kept in culture in 100 mL spinner flasks on a stirring platform to form aggregates under low shear conditions (see e.g. Fok and Zandstra, Stem Cells 2005; 23:1333-1342). At day 0 of differentiation, iPSC clusters were treated with Basal medium 1 (BM1) with the addition of 100 ng/mL Activin A, 2 μM CHIR 99021 and 10 μM Y-27632 to induce definitive endoderm. On subsequent days, media change was performed as described below, and occurred daily up to day 14, every other day after that. Definitive endoderm (DE) was induced from day 0 to day 3 and gut tube (GT) was patterned from day 3 to day 6. On day 6, pancreatic progenitors (PP) were induced until day 11. Commitment to the endocrine (EN) lineage was then performed between day 11 and day 14, and day 14 EN clusters were differentiated to islet-like clusters (ILCs) until day 24 (FIG. 1). […]

[6] = addition of gamma secretase inhibitor and removal of T3, compared to control
[7] = GSI in absence of T3 after thawing

SMILES: C[C@H](NC(=O)Cc1cc(F)cc(F)c1)C(=O)N[C@H]1N=C(c2ccccc2)c2ccccc2N(C)C1=O [gamma secretase inhibitor, gamma secretase inhibitor XXI (CAS 209986-17-4)]
- population of ductal cells, post-thaw ([1]; GSI without T3): decreased to low levels
- populations of ARX^pos cells, post-thaw, versus Ctrl ([1]; extended GSI in absence of T3): increased
- populations of beta-cells, post-thaw, versus Ctrl ([1]; extended GSI in absence of T3): increased
- somatostatin (SST)^pos cells, post-thaw, versus Ctrl ([1]; extended GSI in absence of T3): increased
- content of chromogranin A^pos cells (ILC cells [2]; addition of gamma secretase inhibitor (1 μM, day 14-17) and removal of T3 after EN stage, combination protocol): above 95%
- glucagon^pos cells (ILC cells [2]; [6]): Significantly higher numbers
- NKX6.1^pos/C-peptide^pos beta cell population (ILC cells [2]; addition of gamma secretase inhibitor and removal of T3, FACS): > 65%
- VMAT1/SLC18A1 expression (ILC cells [2]; addition of gamma secretase inhibitor in absence of T3): similarly reduced
- pancreatic EC cells (serotonin^pos and C-peptide^neg) (ILC cells [2]; addition of gamma secretase inhibitor in absence of T3, combination protocol, control 30%): < 15%
- NKX6.1^pos/C-peptide^pos cells (ILC cells [3]): above 65%
- serotonin^pos/C-peptide^neg cells (ILC cells [3]): only a small fraction
- number of Chromogranin^pos cells in post-thaw islet-like clusters versus control [4, 7]: increases
- number of beta-cells in post-thaw islet-like clusters versus control [4, 7]: increases
- C-peptide^neg/serotonin^pos cell levels in post-thaw islet-like clusters versus control ([4]; GSI while omitting T3 after thawing): decreases
- post-thaw recovery versus control [5]: increases the post-thaw recovery
- ductal cells (SOX9^pos/CFTR^pos) (islet-like clusters; addition of gamma secretase inhibitor and removal of T3): Only residual ductal cells
- somatostatin^pos population (islet-like clusters; [6]): increased
